Assay results: patent US11440884B2, “Compounds, salts thereof and methods for treatment of diseases” (ACADIA PHARMACEUTICALS INC., priority 2017, dated 2022)

target: 5-HT2A receptor (Homo sapiens (Human), UniProt P28223); experiment: Receptor Selection and Amplification (R-SAT) functional antagonist assay; conditions: not given;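 also: Read-out is β-galactosidase marker gene activity with ONPG substrate, measured after five days of growth in 96-well plates holding the test compound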
Sequence (P28223 whole entry): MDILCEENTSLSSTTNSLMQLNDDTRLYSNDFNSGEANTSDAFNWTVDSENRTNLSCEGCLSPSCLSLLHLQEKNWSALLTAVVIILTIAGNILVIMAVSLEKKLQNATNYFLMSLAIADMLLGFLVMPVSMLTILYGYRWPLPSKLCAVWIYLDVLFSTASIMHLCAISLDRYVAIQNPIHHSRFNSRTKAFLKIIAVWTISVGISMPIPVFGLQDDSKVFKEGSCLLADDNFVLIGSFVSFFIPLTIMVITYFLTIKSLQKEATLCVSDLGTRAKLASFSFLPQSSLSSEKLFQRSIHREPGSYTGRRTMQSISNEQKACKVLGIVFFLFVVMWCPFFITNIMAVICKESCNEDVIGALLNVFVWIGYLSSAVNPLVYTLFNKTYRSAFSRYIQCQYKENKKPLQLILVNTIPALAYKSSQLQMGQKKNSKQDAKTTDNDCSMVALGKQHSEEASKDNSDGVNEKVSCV

Row | Ki | Compound | 5-HT2a pKi
1 | – | CC(C)Oc1ccc(CC(=O)N(Cc2ccc(F)c(F)c2F)C2CCN(C)CC2)cc1.O=C(O)C(F)(F)F [Compound 34, N-(1-methylpiperidin-4-yl)-2-[4-(propan-2-yloxy)phenyl]-N-[(2,3,4-trifluorophenyl)methyl]acetamide; trifluoroacetic acid] | 7.4
2 | – | CC(=O)O.COc1cc(F)c(CN(C(=O)OCc2ccc(OCC(C)C)cc2)C2CCN(C)CC2)c(F)c1 [Compound 36, [4-(2-methylpropoxy)phenyl]methyl N-[(2,6-difluoro-4-methoxyphenyl)methyl]-N-(1-methylpiperidin-4-yl)carbamate; acetic acid] | 9.0
3 | 0.00251 µM | COc1ccc(CN(C(=O)OCc2ccc(OC(C)C)cc2)C2CCN(C)CC2)c(F)c1 [Compound 41, [4-(propan-2-yloxy)phenyl]methyl N-[(2-fluoro-4-methoxyphenyl)-methyl]-N-(1-methylpiperidin-4-yl)carbamate] | –
4 | 200 µM | CC(C)COc1ccc(CC(=O)N(Cc2ccc(Cl)cc2C(F)(F)F)C2CCN(C)CC2)cc1 [Compound 50, N-{[4-chloro-2-(trifluoromethyl)phenyl]methyl}-N-(1-methylpiperidin-4-yl)-2-[4-(2-methylpropoxy)phenyl]acetamide; trifluoroacetic acid] | –
5 | – | Cc1cc(F)ccc1CN(C(=O)OCc1ccc(OC(C)C)cc1)C1CCN(C)CC1.O=C(O)C(F)(F)F [Compound 56, [4-(propan-2-yloxy)phenyl]methyl N-[(4-fluoro-2-methylphenyl)-methyl]-N-(1-methylpiperidin-4-yl)carbamate; trifluoroacetic acid] | 7.8
6 | – | COc1ccc(CN(C(=O)OCc2ccc(OC(C)C)cc2)C2CCN(C)CC2)c(Cl)c1.O=C(O)C(F)(F)F [Compound 57, [4-(propan-2-yloxy)phenyl]methyl N-[(2-chloro-4-methoxy-phenyl)methyl]-N-(1-methylpiperidin-4-yl)carbamate; trifluoroacetic acid] | 7.8
7 | – | CC(C)COc1ccc(CC(=O)N(Cc2ccc(C(F)(F)F)cc2F)C2CCN(C)CC2)cc1.O=C(O)C(F)(F)F [Compound 69] | 7.7
8 | – | CN1CCC(N(Cc2ccc(F)cc2F)C(=O)OCc2ccc(OC(C)(C)C)cc2)CC1.O=C(O)C(F)(F)F [Compound 72] | 10.0
9 | – | CN1CCC(N(Cc2ccc(F)cc2F)C(=O)OCc2ccc(C(C)(F)F)cc2)CC1.O=C(O)C(F)(F)F [Compound 73] | 9.4

same assay, conditions: R-SAT, transfected NIH3T3 cells; guidance: high affinity pKi≥8.4, moderate affinity pKi≥7.7

Row | Compound | 5-HT2a pKi
10 | CC(C)COc1ccc(COC(=O)N(Cc2ccc(F)c(F)c2F)C2CCN(C)CC2)cc1 [Compound 37, [4-(2-methylpropoxy)phenyl]methyl N-(1-methylpiperidin-4-yl)-N-[(2,3,4-trifluorophenyl)methyl]carbamate] | 8.9
11 | CC(C)Oc1ccc(COC(=O)N(Cc2ccc(Cl)cc2F)C2CCN(C)CC2)cc1 [Compound 38, [4-(propan-2-yloxy)phenyl]methyl N-[(4-chloro-2-fluorophenyl)-methyl]-N-(1-methylpiperidin-4-yl)carbamate] | 9.3
12 | CN1CCC(N(Cc2ccc(F)cc2F)C(=O)OCc2ccc(OCCF)cc2)CC1 [Compound 39, [4-(2-fluoroethoxy)phenyl]methyl N-[(2,4-difluorophenyl)methyl]-N-(1-methylpiperidin-4-yl)carbamate] | 9.8
13 | CCCCOc1ccc(COC(=O)N(Cc2ccc(F)cc2F)C2CCN(C)CC2)cc1 [Compound 40, (4-butoxyphenyl)methyl N-[(2,4-difluorophenyl)methyl]-N-(1-methylpiperidin-4-yl)carbamate] | 8.9
14 | COC(=O)C(C)(C)CN1CCC(N(Cc2ccc(F)cc2F)C(=O)OCc2ccc(OC(C)C)cc2)CC1 [Compound 42, methyl 3-(4-{[(2,4-difluorophenyl)methyl]({[4-(propan-2-yloxy)phenyl]methoxy}carbonyl)amino}piperidin-1-yl)-2,2-dimethylpropanoate] | 8.0
15 | CC(C)Oc1ccc(COC(=O)N(Cc2ccc(F)cc2F)C2CCN(CC(C)(C)C(=O)O)CC2)cc1 [Compound 43, 3-(4-{[(2,4-difluorophenyl)methyl]({[4-(propan-2-yloxy)phenyl]-methoxy}carbonyl)amino}piperidin-1-yl)-2,2-dimethylpropanoic acid] | 8.5
16 | CCN1CCC(N(Cc2ccc(F)cc2F)C(=O)OCc2ccc(OC(C)C)cc2)CC1 [Compound 44, [4-(propan-2-yloxy)phenyl]methyl N-[(2,4-difluorophenyl)methyl]-N-(1-ethylpiperidin-4-yl)carbamate] | 9.4
17 | CC(C)Oc1ccc(COC(=O)N(Cc2ccc(F)cc2F)C2CCN(C3CC3)CC2)cc1 [Compound 45, [4-(propan-2-yloxy)phenyl]methyl N-(1-cyclopropylpiperidin-4-yl)-N-[(2,4-difluorophenyl)methyl]carbamate] | 8.6
18 | CC(C)COc1ccc(CC(=O)N(Cc2ccc(F)cc2OC(F)(F)F)C2CCN(C)CC2)cc1.O=C(O)C(F)(F)F [Compound 51, N-{[4-fluoro-2-(trifluoromethoxy)phenyl]methyl}-N-(1-methyl-piperidin-4-yl)-2-[4-(2-methylpropoxy)phenyl]acetamide; trifluoroacetic acid] | 6.7
19 | Cc1cc(F)ccc1CN(C(=O)Cc1ccc(OCC(C)C)cc1)C1CCN(C)CC1.O=C(O)C(F)(F)F [Compound 52, N-[(4-fluoro-2-methylphenyl)methyl]-N-(1-methylpiperidin-4-yl)-2-[4-(2-methylpropoxy)phenyl]acetamide; trifluoroacetic acid] | 6.7
20 | COc1ccc(CN(C(=O)Cc2ccc(OCC(C)C)cc2)C2CCN(C)CC2)c(Cl)c1.O=C(O)C(F)(F)F [Compound 53, N-[(2-chloro-4-methoxyphenyl)methyl]-N-(1-methylpiperidin-4-yl)-2-[4-(2-methylpropoxy)phenyl]acetamide; trifluoroacetic acid] | 6.9
21 | CC(C)COc1ccc(CC(=O)N(Cc2ccc(Cl)cc2Cl)C2CCN(C)CC2)cc1.O=C(O)C(F)(F)F [Compound 59, N-[(2,4-dichlorophenyl)methyl]-N-(1-methylpiperidin-4-yl)-2-[4-(2-methylpropoxy)phenyl]acetamide; trifluoroacetic acid] | 6.6
22 | CC(C)Oc1ccc(CC(=O)N(Cc2ccc(Cl)cc2Cl)C2CCN(C)CC2)cc1.O=C(O)C(F)(F)F [Compound 60, N-[(2,4-dichlorophenyl)methyl]-N-(1-methylpiperidin-4-yl)-2-[4-(propan-2-yloxy)phenyl]acetamide; trifluoroacetic acid] | 6.5
23 | CC(C)COc1ccc(CC(=O)N(Cc2ccc(F)cc2Cl)C2CCN(C)CC2)cc1.O=C(O)C(F)(F)F [Compound 61, N-[(2-chloro-4-fluorophenyl)methyl]-N-(1-methylpiperidin-4-yl)-2-[4-(2-methylpropoxy)phenyl]acetamide; trifluoroacetic acid] | 6.7
24 | CC(C)Oc1ccc(CC(=O)N(Cc2ccc(F)cc2Cl)C2CCN(C)CC2)cc1.O=C(O)C(F)(F)F [Compound 62, N-[(2-chloro-4-fluorophenyl)methyl]-N-(1-methylpiperidin-4-yl)-2-[4-(propan-2-yloxy)phenyl]acetamide; trifluoroacetic acid] | 6.5

Next, values leading:

Row | 5-HT2a pKi | Compound
25 | 7.6 | CC(C)Oc1ccc(COC(=O)N(Cc2ccc(F)cc2F)C2CCN(C3COC3)CC2)cc1 [Compound 46, [4-(propan-2-yloxy)phenyl]methyl N-[(2,4-difluorophenyl)methyl]-N-[1-(oxetan-3-yl)piperidin-4-yl]carbamate]
26 | 8.1 | COc1ccc(CN(C(=O)Cc2ccc(OCC(C)C)cc2)C2CCN(C)CC2)c(F)c1 [Compound 47, N-[(2-fluoro-4-methoxyphenyl)methyl]-N-(1-methylpiperidin-4-yl)-2-[4-(2-methylpropoxy)phenyl]acetamide]
27 | 7.4 | CC(C)Oc1ccc(/C=C/C(=O)N(Cc2ccc(F)cc2F)C2CCN(C)CC2)cc1 [Compound 48, (2E)-N-[(2,4-difluorophenyl)methyl]-N-(1-methylpiperidin-4-yl)-3-[4-(propan-2-yloxy)phenyl]prop-2-enamide]
28 | 8.1 | CC(C)COc1ccc(COC(=O)N(Cc2ccc(F)cc2Cl)C2CCN(C)CC2)cc1 [Compound 58, [4-(2-methylpropoxy)phenyl]methyl N-[(2-chloro-4-fluorophenyl)methyl]-N-(1-methylpiperidin-4-yl)carbamate]
29 | 8.4 | CC(C)Oc1ccc(COC(=O)N(Cc2ccc(F)cc2Cl)C2CCN(C)CC2)cc1 [Compound 63, [4-(propan-2-yloxy)phenyl]methyl N-[(2-chloro-4-fluorophenyl)-methyl]-N-(1-methylpiperidin-4-yl)carbamate]
30 | 8.0 | CC(C)COc1ccc(COC(=O)N(Cc2ccc(Cl)cc2Cl)C2CCN(C)CC2)cc1 [Compound 64, [4-(2-methylpropoxy)phenyl]methyl N-[(2,4=dichlorophenyl)methyl]-N-(1-methylpiperidin-4-yl)carbamate]
31 | 7.7 | Cc1ccc(F)c(CN(C(=O)OCc2ccc(OC(C)C)cc2)C2CCN(C)CC2)c1F [Compound 65, [4-(propan-2-yloxy)phenyl]methyl N-[(2,6-difluoro-3-methylphenyl)methyl]-N-(1-methylpiperidin-4-yl)carbamate]
32 | 8.4 | CC(C)Oc1ccc(COC(=O)N(Cc2c(F)ccc(F)c2F)C2CCN(C)CC2)cc1 [Compound 66, [4-(propan-2-yloxy)phenyl]methyl N-(1-methylpiperidin-4-yl)-N-[(2,3,6-trifluorophenyl)methyl]carbamate]
33 | 10.0 | Cc1c(F)ccc(CN(C(=O)OCc2ccc(OC(C)C)cc2)C2CCN(C)CC2)c1F [Compound 67, [4-(propan-2-yloxy)phenyl]methyl N-[(2,4-difluoro-3-methylphenyl)methyl]-N-(1-methylpiperidin-4-yl)carbamate]
34 | 7.3 | Cc1ccc(CN(C(=O)OCc2ccc(OC(C)C)cc2)C2CCN(C)CC2)c(F)c1 [Compound 68, [4-(propan-2-yloxy)phenyl]methyl N-[(2-fluoro-4-methylphenyl)-methyl]-N-(1-methylpiperidin-4-yl)carbamate]
